In ChEMBL document CHEMBL3045073, “Synthesis of -amino carbonyl derivatives of coumarin and benzofuran and evaluation of their biological activity” (Med Chem Res, 2013):
Values after ≈ are worked out from the molar mass of the structure shown. Active and inactive are the calls of the source. The rule behind the calls is not given here.

Experiments:
Pseudomonas aeruginosa [1] = assay: Antibacterial activity against Pseudomonas aeruginosa ATCC 27853 assessed as growth inhibition after 24 hr by serial broth dilution method; format: functional
Escherichia coli [2] = assay: Antibacterial activity against Escherichia coli ATCC 25922 assessed as growth inhibition after 24 hr by serial broth dilution method
[3] = system: Radical scavenging activity; assay: Antioxidant activity assessed as DPPH free radical scavenging activity at 100 ug/mL after 10 min UV-Vis spectrophotometric analysis relative to control; format: functional
Escherichia coli [4] = assay: Antibacterial activity against Escherichia coli ATCC 25922 assessed as growth inhibition at 50 mg/mL after 24 hr by agar well diffusion method; conditions: for zone of inhibition at 50000 µg/mL: ATCC 25922, 24 h, read-out: IZ
Pseudomonas aeruginosa [5] = assay: Antibacterial activity against Pseudomonas aeruginosa ATCC 27853 assessed as growth inhibition at 50 mg/mL after 24 hr by agar well diffusion method; format: functional; conditions: for zone of inhibition at 50000 µg/mL: ATCC 27853, 24 h, read-out: IZ
Aspergillus flavus [6] = assay: Antifungal activity against Aspergillus flavus assessed as growth inhibition after 72 hr by serial broth dilution method; format: functional
[7] = system: Chrysosporium keratinophilum; assay: Antifungal activity against Chrysosporium keratinophilum assessed as growth inhibition after 72 hr by serial broth dilution method; format: functional
Candida albicans [8] = assay: Antifungal activity against Candida albicans MTCC227 assessed as growth inhibition after 72 hr by serial broth dilution method
Staphylococcus aureus [9] = assay: Antibacterial activity against Staphylococcus aureus ATCC 25923 assessed as growth inhibition at 50 mg/mL after 24 hr by agar well diffusion method; conditions: for zone of inhibition at 50000 µg/mL: ATCC 25923, 24 h, read-out: IZ
Aspergillus flavus [10] = assay: Antifungal activity against Aspergillus flavus assessed as growth inhibition at 50 mg/mL after 72 hr by agar well diffusion method; format: functional; conditions: for zone of inhibition at 50000 µg/mL: read-out: IZ
Staphylococcus aureus [11] = assay: Antibacterial activity against Staphylococcus aureus ATCC 25923 assessed as growth inhibition after 24 hr by serial broth dilution method
Candida albicans [12] = assay: Antifungal activity against Candida albicans MTCC227 assessed as growth inhibition at 50 mg/mL after 72 hr by agar well diffusion method; conditions: for zone of inhibition at 50000 µg/mL: MTCC227, 72 h, read-out: IZ
[13] = system: Chrysosporium keratinophilum; assay: Antifungal activity against Chrysosporium keratinophilum assessed as growth inhibition at 50 mg/mL after 72 hr by agar well diffusion method; format: functional; conditions: for zone of inhibition at 50000 µg/mL: read-out: IZ
Candida albicans [14] = assay: Antifungal activity against Candida albicans NCPF 3179 assessed as growth inhibition at 0.5 to 1 mg/mL after 72 hr by agar well diffusion method; format: functional
[15] = system: Chrysosporium keratinophilum; assay: Antifungal activity against Chrysosporium keratinophilum assessed as growth inhibition at 0.5 to 1 mg/mL after 72 hr by agar well diffusion method; format: functional
Aspergillus flavus [16] = assay: Antifungal activity against Aspergillus flavus assessed as growth inhibition at 0.5 to 1 mg/mL after 72 hr by agar well diffusion method; format: functional
[17] = Metal chelating activity of the compound assessed as ferrous ion complex formation at 0.5 to 2 mg/mL after 10 min by spectrophotometric analysis relative to EDTA

Row | Structure (SMILES) | MIC (Pseudomonas aeruginosa [1]; ATCC 27853, 24 h) [µg/mL] | MIC (Escherichia coli [2]; ATCC 25922, 24 h) [µg/mL] | Activity [3] [%] | zone of inhibition at 50000 µg/mL (Escherichia coli [4]) [mm] | zone of inhibition at 50000 µg/mL (Pseudomonas aeruginosa [5]) [mm] | MIC (Aspergillus flavus [6]) | MIC [7] | MIC (Candida albicans [8]; MTCC227, 72 h) [µg/mL] | zone of inhibition at 50000 µg/mL (Staphylococcus aureus [9]) [mm] | zone of inhibition at 50000 µg/mL (Aspergillus flavus [10]) [mm] | MIC (Staphylococcus aureus [11]; ATCC 25923, 24 h) [µg/mL] | zone of inhibition at 50000 µg/mL (Candida albicans [12]) [mm] | zone of inhibition at 50000 µg/mL [13] [mm] | further results
1 | O=C(O)c1ccc(NC(CC(=O)c2cc3ccccc3oc2=O)c2ccc(F)cc2)cc1 (stereo not given) | 100 (≈ 232 µM) | 100 (≈ 232 µM) | 35.2 | 12 | 12 | 230 µg/mL (≈ 533 µM) | 200 µg/mL (≈ 464 µM) | 100 (≈ 232 µM) | 10 | 10 | 120 (≈ 278 µM) | 18 | 12 | 
2 | COc1ccc(C(CC(=O)c2cc3ccccc3oc2=O)Nc2ccc(C(=O)O)cc2)cc1 (stereo not given) |  |  | 18.1 |  |  | inactive | inactive |  |  |  |  |  |  | MIC (Pseudomonas aeruginosa [1]): inactive; MIC (Escherichia coli [2]): inactive; growth inhibition (GI) (Escherichia coli [4]): inactive; growth inhibition (GI) (Pseudomonas aeruginosa [5]): inactive; MIC (Candida albicans [8]): inactive; growth inhibition (GI) (Staphylococcus aureus [9]): inactive; growth inhibition (GI) (Aspergillus flavus [10]): inactive; MIC (Staphylococcus aureus [11]): inactive; growth inhibition (GI) (Candida albicans [12]): inactive; growth inhibition (GI) [13]: inactive
3 | Cc1ccc(C(CC(=O)c2cc3ccccc3o2)Nc2ccc(C(=O)O)cc2)cc1 (stereo not given) |  |  | 54.1 |  |  | inactive | inactive |  |  |  |  |  |  | MIC (Pseudomonas aeruginosa [1]): inactive; MIC (Escherichia coli [2]): inactive; growth inhibition (GI) (Escherichia coli [4]): inactive; growth inhibition (GI) (Pseudomonas aeruginosa [5]): inactive; MIC (Candida albicans [8]): inactive; growth inhibition (GI) (Staphylococcus aureus [9]): inactive; growth inhibition (GI) (Aspergillus flavus [10]): inactive; MIC (Staphylococcus aureus [11]): inactive; growth inhibition (GI) (Candida albicans [12]): inactive; growth inhibition (GI) [13]: inactive
4 | COc1ccc(C(CC(=O)c2cc3ccccc3o2)Nc2ccc(C(=O)O)cc2)cc1 (stereo not given) | 500 (≈ 1200 µM) | 500 (≈ 1200 µM) | 14.2 | 3 | 1 | 500 µg/mL (≈ 1200 µM) | 500 µg/mL (≈ 1200 µM) |  | 1 | 1 | 500 (≈ 1200 µM) |  | 2 | MIC (Candida albicans [8]): inactive; growth inhibition (GI) (Candida albicans [12]): inactive
5 | O=C(O)c1ccc(NC(CC(=O)c2cc3ccccc3oc2=O)c2ccc(Cl)cc2)cc1 (stereo not given) | 40 (≈ 89.3 µM) | 50 (≈ 112 µM) | 34.7 | 13 | 13 | 40 µg/mL (≈ 89.3 µM) | 40 µg/mL (≈ 89.3 µM) | 50 (≈ 112 µM) | 11 | 11 | 50 (≈ 112 µM) | 19 | 15 | 
6 | O=C(O)c1ccc(NC(CC(=O)c2cc3ccccc3o2)c2ccc(Cl)cc2)cc1 (stereo not given) | 140 (≈ 333 µM) | 120 (≈ 286 µM) | 31.2 | 9 | 7 | 40 µg/mL (≈ 95.3 µM) | 40 µg/mL (≈ 95.3 µM) | 50 (≈ 119 µM) | 8 | 7 | 130 (≈ 310 µM) | 17 | 13 | 
7 | CN(C)c1ccc(C(CC(=O)c2cc3ccccc3oc2=O)Nc2ccc(C(=O)O)cc2)cc1 (stereo not given) | 400 (≈ 876 µM) | 500 (≈ 1100 µM) | 12.3 | 3 | 3 | 450 µg/mL (≈ 986 µM) | inactive | 500 (≈ 1100 µM) | 2 | 1 | 550 (≈ 1200 µM) | 1 |  | growth inhibition (GI) [13]: inactive
8 | COc1ccc(C(CC(=O)c2cc3ccccc3o2)Nc2ccccc2)cc1 (stereo not given) |  |  | 27.3 |  |  | inactive | inactive |  |  |  |  |  |  | MIC (Pseudomonas aeruginosa [1]): inactive; MIC (Escherichia coli [2]): inactive; growth inhibition (GI) (Escherichia coli [4]): inactive; growth inhibition (GI) (Pseudomonas aeruginosa [5]): inactive; MIC (Candida albicans [8]): inactive; growth inhibition (GI) (Staphylococcus aureus [9]): inactive; growth inhibition (GI) (Aspergillus flavus [10]): inactive; MIC (Staphylococcus aureus [11]): inactive; growth inhibition (GI) (Candida albicans [12]): inactive; growth inhibition (GI) [13]: inactive
9 | Cc1cc(C(C)(C)C)c(O)c(C(C)(C)C)c1 |  |  | 90 |  |  |  |  |  |  |  |  |  |  | 
10 | OC(Cn1cncn1)(Cn1cncn1)c1ccc(F)cc1F [FLUCONAZOLE] |  |  |  |  |  |  |  |  |  |  |  |  |  | inhibition zone (IZ) (Candida albicans [14]): 20 mm; MIC (Candida albicans [14]; Candida albicans, NCPF 3179, 72 h): 40 µg/mL (≈ 131 µM); inhibition zone (IZ) [15]: 14 mm; MIC ([15]; Chrysosporium keratinophilum, 72 h): 40 µg/mL (≈ 131 µM); inhibition zone (IZ) (Aspergillus flavus [16]): 10 mm; MIC (Aspergillus flavus [16]; Aspergillus flavus, 72 h): 40 µg/mL (≈ 131 µM)
11 | O=C(CC(Nc1ccccc1)c1ccccc1)c1cc2ccccc2o1 (stereo not given) | 500 (≈ 1460 µM) | 500 (≈ 1460 µM) | 28.7 | 1 | 1 | 500 µg/mL (≈ 1460 µM) | 500 µg/mL (≈ 1460 µM) | 500 (≈ 1460 µM) | 1 | 2 | 500 (≈ 1460 µM) | 2 | 1 | 
12 | Cc1ccc(C(CC(=O)c2cc3ccccc3oc2=O)Nc2ccc(C(=O)O)cc2)cc1 (stereo not given) | 500 (≈ 1170 µM) | 500 (≈ 1170 µM) | 52.5 | 1 | 3 | 450 µg/mL (≈ 1050 µM) | inactive | 500 (≈ 1170 µM) | 3 | 1 | 500 (≈ 1170 µM) | 1 |  | Activity [17]: Active; growth inhibition (GI) [13]: inactive
13 | O=C(O)c1ccc(NC(CC(=O)c2cc3ccccc3oc2=O)c2ccc([N+](=O)[O-])cc2)cc1 (stereo not given) | 430 (≈ 938 µM) | 500 (≈ 1090 µM) | 15.3 | 3 | 6 | 250 µg/mL (≈ 545 µM) | 350 µg/mL (≈ 763 µM) | 500 (≈ 1090 µM) | 3 | 5 | 500 (≈ 1090 µM) | 4 | 6 | 
14 | CN(C)c1ccc(C(CC(=O)c2cc3ccccc3o2)Nc2ccc(C(=O)O)cc2)cc1 (stereo not given) | 40 (≈ 93.4 µM) | 50 (≈ 117 µM) | 67.2 | 13 | 10 | 40 µg/mL (≈ 93.4 µM) | 40 µg/mL (≈ 93.4 µM) | 50 (≈ 117 µM) | 11 | 10 | 60 (≈ 140 µM) | 19 | 12 | Activity [17]: Active
15 | O=C(CC(Nc1ccccc1)c1ccccc1)c1cc2ccccc2oc1=O (stereo not given) | 350 (≈ 947 µM) | 500 (≈ 1350 µM) | 25.3 | 4 | 1 | 450 µg/mL (≈ 1220 µM) | 550 µg/mL (≈ 1490 µM) | 300 (≈ 812 µM) | 5 | 4 | 500 (≈ 1350 µM) | 7 | 3 | 
16 | O=C(O)c1ccc(NC(CC(=O)c2cc3ccccc3o2)c2ccc([N+](=O)[O-])cc2)cc1 (stereo not given) | 500 (≈ 1160 µM) | 500 (≈ 1160 µM) | 29.1 | 3 | 3 | 550 µg/mL (≈ 1280 µM) | 500 µg/mL (≈ 1160 µM) | 450 (≈ 1050 µM) | 3 | 3 | 400 (≈ 929 µM) | 2 | 2 | 
17 | O=C(O)c1ccc(NC(CC(=O)c2cc3ccccc3o2)c2ccc(F)cc2)cc1 (stereo not given) | 140 (≈ 347 µM) | 300 (≈ 744 µM) | 36.2 | 5 | 9 | 130 µg/mL (≈ 322 µM) | 150 µg/mL (≈ 372 µM) | 100 (≈ 248 µM) | 6 | 9 | 140 (≈ 347 µM) | 18 | 12 | Activity [17]: Active
